Two molecules from patent US5081116A, “Cephalosporin derivatives” (Yamanouchi Pharmaceutical Co., Ltd., priority 1989, dated 1992) can be followed below.

Values after ≈ are worked out from the molar mass of the structure shown. Like-named read-outs stand apart in the source and are kept apart here.

For one data set, the system named is CAY 1104. The data set can be described thus: Minimum growth inhibition concentration (antimicrobial activity). It is filed as cell-based. Conditions: Enterobacter Faecalis CAY 1104. The source says:
(§1) The antimicrobial activity of the 7-[2-(2-amino-4-thiazolyl)-2-(hydroxyimino)acetamido]-3-(1,3-dithiolan-2-yl)-3-cephem-4-carboxylic acid which is such that A of the compounds of the general formula is the hydrogen atom (Compound of Example 1) is shown in Table 1.
(§2) (Minimum Growth Inhibition Concentration, γ/ml)

The test system of a further data set is Escherichia coli 0-1. Described as above. It is filed as cell-based. Conditions: 01.
Excerpt: as §1, §2

Data set [1] relates to Klebsiella pneumoniae ATCC 10031. Described as above. It is filed as cell-based. Conditions: ATCC10031.
Excerpt: as §1, §2

Data set [2] concerns Staphylococcus aureus FDA 209P JC-1. The data set is described as above. It is filed as cell-based. Conditions: FDA209P.
Excerpt: as §1, §2

Data set [3] deals with Staphylococcus epidermidis IID 866. The data set is described as above. The data set is classed as cell-based. Conditions: IID866.
Excerpt: as §1, §2

Data set [4] can be described thus: Absorption rate from the digestive tract (urinary and biliary recovery after oral administration). The data set is classed as in vivo. The conditions noted are these: rat, 50 mg/kg, bioassay. How it is done:
Further, the absorption rate of the compound of the general formula (I) wherein A is the 1-acetoxyethyl group (Compound of Example 2) from the digestive tract is shown as follows together with the testing method therefor.
An ether-anesthetized rat was fixed with the belly upside and a polyethylene tube was inserted into the bile-duct. The urine was collected from the same rat. After the test compound was orally administered at 50 mg/kg, urine and bile samples were collected within 0-6 hours and also within 6-24 hours. The amounts recovered in the urine and the bile within 24 hours were determined by measuring the test compound concentrations in the urine and the bile by a bioassay method using the standard solution of the test compound prepared with M/15 phosphate buffer.

Regarding `Nc1nc(/C(=N/O)C(=O)NC2C(=O)N3C(C(=O)O)=C(C4SCCS4)CS[C@H]23)cs1` (some centres unmarked) [Example 1, (Z)-7-[2-(2-amino-4-thiazolyl)-2-(hydroxyimino)acetamido]-3-(1,3-dithiolan-2-yl)3-cephem-4-carboxylic acid], the MIC – broadly, the least concentration at which growth counts as inhibited – is 3.13 µg/mL (≈ 6.61 µM) in the data set with CAY 1104; 0.39 µg/mL (≈ 0.824 µM) in the data set on Escherichia coli 0-1; 0.78 µg/mL (≈ 1.65 µM) in data set [1]; 0.39 µg/mL (≈ 0.824 µM) in data set [2]; 0.39 µg/mL (≈ 0.824 µM) in data set [3].
On to `CC(=O)OC(C)OC(=O)C1=C(C2SCCS2)CS[C@@H]2C(NC(=O)/C(=N\O)c3csc(N)n3)C(=O)N12` (some centres unmarked) [Example 2, 1-acetoxyethyl (Z)-7-[2-(2-amino-4-thiazolyl)-2-(hydroxyimino)acetamido]-3-(1,3-dithiolan-2-yl)-3-cephem-4-carboxylate], for which the dose excreted at 24 h in data set [4] (bile, read-out: Recovery Rate (%) within 24 hours In the Bile) turned out to be 8.5%; in data set [4] (urine, read-out: Recovery Rate (%) within 24 hours In the Urine), 14.1%; in data set [4] (urine and bile, urine + bile, read-out: Recovery Rate (%) within 24 hours Total) it was 22.6%.
